Structures can show the parent of a compound that is named as a salt.
Tested on: collagen induced platelet aggregation
Test: In Vitro Inhibition of Platelet Aggregation (collagen induced, rabbit platelet-rich plasma)
Assay type: cell-based
Conditions: Oryctolagus cuniculus, 10 min; for inhibition at 60 µM: 6 × 10^^-5 mol./l.; for inhibition at 6 µM: 6 × 10^^-6 mol./l.; for inhibition at 600 µM: 6 × 10^^-4 mol./l.
Procedure: The ability of the compounds of the present invention to inhibit platelet aggregation in vitro is measured according to the method of Born, et al., J. Physiol., 168, 178 (1963) and comprises the following procedure: Anesthetized male rabbits are bled from a carotid artery into plastic centrifuge tubes containing 0.1 volume 3% sodium citrate. Platelet-rich plasma is separated by centrifugation at 100 G for 10 minutes at 20° C. […] After 10 minutes of incubation with the platelet-rich plasma at room temperature, collagen, a protein known to cause platelet aggregation, is added (0.27 ml. collagen/4 ml. plasma) and changes in the optical density are followed with a Spectronic 20 colorimeter attached to a Houston Instrument TY Recorder. Platelet aggregation is indicated by a decrease in optical density. The relative potency of the compounds of the present invention are thus rated on their ability to inhibit (percent) collagen induced platelet aggregation.

Compound `C=CCN(CC=C)c1cc(-c2cccs2)ncn1` has an inhibition at 60 µM of 50% and an inhibition at 6 µM of 40%.

Compound `CCCC(=O)Nc1cccc(-c2cc(N(CC)CC)ncn2)c1` has an inhibition at 600 µM of 36% and an inhibition at 60 µM of 8%.

With `CCCCN(CCCC)c1cc(-c2cccc(NC(C)=O)c2)ncn1` the inhibition at 600 µM was 15%.

`CCN(CC)c1cc(-c2cccc(NC(=O)NC)c2)ncn1` gave an inhibition at 600 µM of 23%.

Compound `CCN(CC)c1cc(-c2cccc(NC(=S)NC)c2)ncn1` has an inhibition at 600 µM of 4.9%.

Compound `CCN(CC)c1cc(-c2cccc(NC(=O)OC)c2)ncn1` has an inhibition at 600 µM of 95% and an inhibition at 60 µM of 11%.

`CCCN(CCC)c1cc(-c2cccc(NS(C)(=O)=O)c2)ncn1` showed an inhibition at 600 µM of 94% and an inhibition at 60 µM of 3%.

`CCN(CCO)c1cc(-c2ccc(OC)cc2)ncn1` gave an inhibition at 600 µM of 90%, an inhibition at 60 µM of 71% and an inhibition at 6 µM of 55%.

In the case of `C=CCN(CC=C)c1cc(-c2ccc(OC)cc2)ncn1`, the inhibition at 600 µM is reported as 90% and the inhibition at 6 µM is reported as 55%.

Work on `COc1ccc(-c2cc(N3CCN(C)CC3)ncn2)cc1` yielded an inhibition at 600 µM of 85%, an inhibition at 60 µM of 55% and an inhibition at 6 µM of 14%.

In the case of `CCCN(CCC)c1cc(-c2ccc(OC)cc2)ncn1`, the inhibition at 600 µM is reported as 91%, the inhibition at 60 µM is reported as 77% and the inhibition at 6 µM is reported as 64%.

For `CN1CCN(c2cc(-c3ccc(Cl)cc3)ncn2)CC1` [4-(4-Methyl-1-piperazinyl)-6-(p-chlorophenyl)pyrimidine hydrochloride], the inhibition at 600 µM was 99%, the inhibition at 60 µM was 65% and the inhibition at 6 µM was 2%.

`CN1CCN(c2cc(-c3ccccc3)ncn2)CC1` [4-(4-Methyl-1-piperazinyl)-6-phenylpyrimidine dihydrochloride] showed an inhibition at 600 µM of 99%, an inhibition at 60 µM of 99% and an inhibition at 6 µM of 59%.

`CCc1c(-c2ccco2)ncnc1N(CC)CC` [Ar=2-furyl; R1=C2H5; R2=C2H5; R3=C2H5] showed an inhibition at 60 µM of 30%.

`CCN(CC)c1cc(-c2cccs2)ncn1` [Ar=2-thienyl; R1=C2H5; R2=C2H5; R3=H, 4-diethylamino-6-(2-thienyl)pyrimidine] gave an inhibition at 600 µM of 94% and an inhibition at 6 µM of 75%.

For `CCNc1cc(-c2cccs2)ncn1` [Ar=2-thienyl; R1=C2H5; R2=H; R3=H], the inhibition at 600 µM was 99%, the inhibition at 60 µM was 75% and the inhibition at 6 µM was 35%.

With `CCN(CC(F)(F)F)c1cc(-c2cccs2)ncn1` [Ar=2-thienyl; R1=CF3CH2; R2=C2H5; R3=H] the inhibition at 600 µM was 75%, the inhibition at 60 µM was 65% and the inhibition at 6 µM was 58%.

`FC(F)(F)CNc1cc(-c2cccs2)ncn1` [Ar=2-thienyl; R1=CF3CH2; R2=H; R3=H] showed an inhibition at 60 µM of 81% and an inhibition at 6 µM of 14%.

Work on `CN(C)c1cc(-c2cccs2)ncn1` [Ar=2-thienyl; R1=CH3; R2=CH3; R3=H] yielded an inhibition at 600 µM of 94%, an inhibition at 60 µM of 82% and an inhibition at 6 µM of 59%.

Compound `Nc1cc(-c2cccs2)ncn1` [Ar=2-thienyl; R1=H; R2=H; R3=H] has an inhibition at 600 µM of 91% and an inhibition at 60 µM of 9%.

`CCCN(CCC)c1cc(-c2cccs2)ncn1` [Ar=2-thienyl; R1=n-C3H7; R2=n-C3H7; R3=H] was tested, and the inhibition at 600 µM was 60%, the inhibition at 60 µM was 60% and the inhibition at 6 µM was 66%.

`CCN(CC)c1cc(-c2cccc(N(C)C)c2)ncn1` [Ar=3-(CH3)2NC6H4; R1=C2H5; R2=C2H5; R3=H, 4-Diethylamino-6-(m-dimethylaminophenyl)pyrimidine hydrochloride] gave an inhibition at 600 µM of 89%, an inhibition at 60 µM of 95% and an inhibition at 6 µM of 85%.

`CCCN(CCC)c1cc(-c2cccc(C(F)(F)F)c2)ncn1` [Ar=3-CF3C6H4; R1=n-C3H7; R2=n-C3H7; R3=H, 4-Di(n-propyl)amino-6-(m-trifluoromethylphenyl)pyrimidine hydrochloride] gave an inhibition at 600 µM of 99% and an inhibition at 60 µM of 50%.

Compound `CC(=O)Nc1cccc(-c2cc(N3CCCC3)ncn2)c1` [Ar=3-CH3CONHC6H4; R1,R2=--(CH2)4--; R3=H] has an inhibition at 600 µM of 94% and an inhibition at 60 µM of 30%.

For `CC(=O)Nc1cccc(-c2cc(N(C)C)ncn2)c1` [Ar=3-CH3CONHC6H4; R1=CH3; R2=CH3; R3=H], the inhibition at 600 µM was 93% and the inhibition at 60 µM was 13%.

`Nc1cccc(-c2cc(N3CCCC3)ncn2)c1` [Ar=3-NH2C6H4; R1,R2=--(CH2)4--; R3=H] showed an inhibition at 600 µM of 11%.

Work on `CCN(CC)c1cc(-c2cccc(N)c2)ncn1` [Ar=3-NH2C6H4; R1=C2H5; R2=C2H5; R3=H, 4-Diethylamino-6-(m-aminophenyl)pyrimidine dihydrochloride] yielded an inhibition at 60 µM of 67% and an inhibition at 6 µM of 41%.

In the case of `CCCN(CCC)c1cc(-c2cccc(N)c2)ncn1` [Ar=3-NH2C6H4; R1=n-C3H7; R2=n-C3H7; R3=H], the inhibition at 600 µM is reported as 95%, the inhibition at 60 µM is reported as 97% and the inhibition at 6 µM is reported as 32%.

`O=[N+]([O-])c1cccc(-c2cc(N3CCCC3)ncn2)c1` [Ar=3-NO2C6H4; R1,R2=--(CH2)4--; R3=H] was tested, and the inhibition at 600 µM was 94% and the inhibition at 60 µM was 25%.

In the case of `COc1ccc(-c2cc(N3CCCC3)ncn2)cc1` [Ar=4-CH3OC6H4; R1,R2=--(CH2)4--; R3=H], the inhibition at 600 µM is reported as 92%, the inhibition at 60 µM is reported as 92% and the inhibition at 6 µM is reported as 39%.

`CCc1c(-c2ccc(OC)cc2)ncnc1N(CC)CC` [Ar=4-CH3OC6H4; R1=C2H5; R2=C2H5; R3=C2H5] showed an inhibition at 6 µM of 42%.

For `COc1ccc(-c2cc(N(C)C)ncn2)cc1` [Ar=4-CH3OC6H4; R1=CH3; R2=CH3; R3=H], the inhibition at 600 µM was 89%, the inhibition at 60 µM was 88% and the inhibition at 6 µM was 48%.

For `CCNc1cc(-c2ccc(OC)cc2)ncn1` [Ar=4-CH3OC6H4; R1=H; R2=C2H5; R3=H], the inhibition at 600 µM was 92%, the inhibition at 60 µM was 64% and the inhibition at 6 µM was 24%.

With `CNc1cc(-c2ccc(OC)cc2)ncn1` [Ar=4-CH3OC6H4; R1=H; R2=CH3; R3=H] the inhibition at 600 µM was 76% and the inhibition at 60 µM was 13%.

`COc1ccc(-c2cc(N)ncn2)cc1` [Ar=4-CH3OC6H4; R1=H; R2=H; R3=H] was tested, and the inhibition at 600 µM was 72%, the inhibition at 60 µM was 24% and the inhibition at 6 µM was 3%.

Compound `COc1ccc(-c2cc(NCC(C)C)ncn2)cc1` [Ar=4-CH3OC6H4; R1=H; R2=i-C4H9; R3=H] has an inhibition at 600 µM of 76%, an inhibition at 60 µM of 54% and an inhibition at 6 µM of 24%.

`Clc1ccc(-c2cc(N3CCCC3)ncn2)cc1` [Ar=4-ClC6H4; R1,R2=--(CH2)4--; R3=H, 4-(1-Pyrrolidinyl)-6-(p-chlorophenyl)pyrimidine hydrochloride] showed an inhibition at 600 µM of 99% and an inhibition at 60 µM of 21%.

With `CCN(CC)c1cc(-c2ccc(Cl)cc2)ncn1` [Ar=4-ClC6H4; R1=C2H5; R2=C2H5; R3=H, 4-Diethylamino-6-(p-chlorophenyl)pyrimidine hydrochloride] the inhibition at 60 µM was 73% and the inhibition at 6 µM was 32%.

`CCN(CCO)c1cc(-c2ccc(Cl)cc2)ncn1` [Ar=4-ClC6H4; R1=C2H5; R2=HO(CH2)2; R3=H] showed an inhibition at 60 µM of 57% and an inhibition at 6 µM of 18%.

Compound `FC(F)(F)CNc1cc(-c2ccc(Cl)cc2)ncn1` [Ar=4-ClC6H4; R1=CF3CH2; R2=H; R3=H, 4-(2,2,2-Trifluoroethylamino)-6-(p-chlorophenyl)pyrimidine hydrochloride] has an inhibition at 600 µM of 86% and an inhibition at 60 µM of 18%.

Work on `CN(C)c1cc(-c2ccc(Cl)cc2)ncn1` [Ar=4-ClC6H4; R1=CH3; R2=CH3; R3=H, 4-Dimethylamino-6-(p-chlorophenyl)pyrimidine hydrochloride] yielded an inhibition at 600 µM of 99%, an inhibition at 60 µM of 58% and an inhibition at 6 µM of 7%.

`CCCN(CCC)c1cc(-c2ccc(Cl)cc2)ncn1` [Ar=4-ClC6H4; R1=n-C3H7; R2=n-C3H7; R3=H, 4-Di(n-propyl)amino-6-(p-chlorophenyl)pyrimidine hydrochloride] gave an inhibition at 600 µM of 84% and an inhibition at 60 µM of 70%.

In the case of `c1ccc(-c2cc(N3CCOCC3)ncn2)cc1` [Ar=C6H5; R1,R2=--(CH2)2O(CH2)2--; R3=H, 4-(4-Morpholinyl)-6-phenylpyrimidine hydrochloride], the inhibition at 600 µM is reported as 94%, the inhibition at 60 µM is reported as 75% and the inhibition at 6 µM is reported as 37%.

Compound `c1ccc(-c2cc(N3CCCC3)ncn2)cc1` [Ar=C6H5; R1,R2=--(CH2)4--; R3=H, 4-(1-Pyrrolidinyl)-6-phenylpyrimidine hydrochloride] has an inhibition at 600 µM of 98%, an inhibition at 60 µM of 70% and an inhibition at 6 µM of 6%.

With `c1ccc(-c2cc(N3CCCCC3)ncn2)cc1` [Ar=C6H5; R1,R2=--(CH2)5--; R3=H, 4-(1-Piperidyl)-6-phenylpyrimidine hydrochloride] the inhibition at 600 µM was 94%, the inhibition at 60 µM was 61% and the inhibition at 6 µM was 60%.

For `c1ccc(-c2cc(N3CCCCCC3)ncn2)cc1` [Ar=C6H5; R1,R2=--(CH2)6--; R3=H, 4-(1-Hexahydroazepinyl)-6-phenylpyrimidine hydrochloride], the inhibition at 600 µM was 99%, the inhibition at 60 µM was 83% and the inhibition at 6 µM was 29%.

With `CN(Cc1cccnc1)c1cc(-c2ccccc2)ncn1` [Ar=C6H5; R1=3-picolyl; R2=CH3; R3=H, 4-[Methyl(3-pyridylmethyl)amino]-6-phenylpyrimidine dihydrochloride] the inhibition at 600 µM was 99% and the inhibition at 60 µM was 17%.

Work on `c1ccc(-c2cc(NCc3cccnc3)ncn2)cc1` [Ar=C6H5; R1=3-picolyl; R2=H; R3=H, 4-(3-Pyridylmethylamino)-6-phenylpyrimidine dihydrochloride] yielded an inhibition at 600 µM of 98%, an inhibition at 60 µM of 31% and an inhibition at 6 µM of 12%.

For `CN(C)CCNc1cc(-c2ccccc2)ncn1` [Ar=C6H5; R1=(CH3)2N(CH2)2; R2=H; R3=H], the inhibition at 600 µM was 99% and the inhibition at 60 µM was 30%.

— US3950525A, “Relaxation of smooth muscle in a mammal” (Pfizer Inc., priority 1975, dated 1976)
